How the values were obtained:
THP-1 = assay: Antiproliferative activity against human THP-1 cells assessed as inhibition of cell viability incubated for 3 to 5 days by Celltiter-Glo luminescent assay; format: functional, cell-based
HCC4006 = assay: Antiproliferative activity against human HCC4006 cells assessed as inhibition of cell viability incubated for 3 to 5 days by Celltiter-Glo luminescent assay; format: functional, cell-based
[1] = target: Serine/threonine-protein kinase B-raf (Homo sapiens, UniProt P15056); assay: Inhibition of B-Raf (unknown origin)
Toledo = assay: Antiproliferative activity against human Toledo cells assessed as inhibition of cell viability incubated for 3 to 5 days by Celltiter-Glo luminescent assay; format: functional, cell-based
[2] = target: cGMP-dependent protein kinase 1 (Homo sapiens, UniProt Q13976); assay: Inhibition of PKG1alpha (unknown origin)
Pfeiffer = assay: Antiproliferative activity against human Pfeiffer cells assessed as inhibition of cell viability incubated for 3 to 5 days by Celltiter-Glo luminescent assay; format: functional, cell-based
NCI-H441 = assay: Antiproliferative activity against human NCI-H441 cells assessed as inhibition of cell viability incubated for 3 to 5 days by Celltiter-Glo luminescent assay; format: functional, cell-based
[3] = target: Epidermal growth factor receptor (Homo sapiens, UniProt P00533); assay: Inhibition of EGFR (unknown origin)
[4] = target: Serine/threonine-protein kinase pim-2 (Homo sapiens, UniProt Q9P1W9); assay: Inhibition of Pim2 (unknown origin)
Farage = assay: Antiproliferative activity against human Farage cells assessed as inhibition of cell viability incubated for 3 to 5 days by Celltiter-Glo luminescent assay; format: functional, cell-based
NCI-H838 = assay: Antiproliferative activity against human NCI-H838 cells assessed as inhibition of cell viability incubated for 3 to 5 days by Celltiter-Glo luminescent assay; format: functional, cell-based
WSU-NHL = assay: Antiproliferative activity against human WSU-NHL cells assessed as inhibition of cell viability incubated for 3 to 5 days by Celltiter-Glo luminescent assay; format: functional, cell-based
KMS-11 = assay: Antiproliferative activity against human KMS-11 cells assessed as inhibition of cell viability incubated for 3 to 5 days by Celltiter-Glo luminescent assay; format: functional, cell-based
[5] = Half life in CB17 SCID mouse xenografted with LuCaP-77 CR cell at 50 mg/kg, ip administered for 7 days; format: ADME, organism-based; conditions: in vivo, time 7 day
[6] = target: Proto-oncogene tyrosine-protein kinase Src (Homo sapiens, UniProt P12931); assay: Inhibition of Src (unknown origin)
[7] = target: High affinity nerve growth factor receptor (Homo sapiens, UniProt P04629); assay: Inhibition of TrkA (unknown origin)
[8] = target: Leukocyte tyrosine kinase receptor (Homo sapiens, UniProt P29376); assay: Inhibition of LTK (unknown origin)
[9] = target: Casein kinase I isoform alpha (Homo sapiens, UniProt P48729); assay: Inhibition of Ck1alpha1 (unknown origin)
NCI-H510A = assay: Antiproliferative activity against human NCI-H510A cells assessed as inhibition of cell viability incubated for 3 to 5 days by Celltiter-Glo luminescent assay; format: functional, cell-based
DB = assay: Antiproliferative activity against human DB cells assessed as inhibition of cell viability incubated for 3 to 5 days by Celltiter-Glo luminescent assay; format: functional, cell-based
SKM-1 = assay: Antiproliferative activity against human SKM-1 cells assessed as inhibition of cell viability incubated for 3 to 5 days by Celltiter-Glo luminescent assay; format: functional, cell-based
U-937 = assay: Antiproliferative activity against human U937 cells assessed as inhibition of cell viability incubated for 3 to 5 days by Celltiter-Glo luminescent assay; format: functional, cell-based
[10] = Tmax in CB17 SCID mouse xenografted with LuCaP-77 CR cell at 50 mg/kg, ip administered for 7 days; format: ADME, organism-based; conditions: in vivo, time 7 day
SU-DHL-2 = assay: Antiproliferative activity against human SUDHL2 cells assessed as inhibition of cell viability incubated for 3 to 5 days by Celltiter-Glo luminescent assay; format: functional, cell-based
in vivo = conditions: CB17 SCID, mouse, brain/plasma, po, 500 mg/kg
Description: Ratio of drug concentration in brain to plasma in CB17 SCID mouse xenografted with LuCaP-77 CR cell at 500 mg/kg, po measured after 24 hrs

[11] = target: Serine/threonine-protein kinase TAO2 (Homo sapiens, UniProt Q9UL54); assay: Inhibition of TAOK2 (unknown origin)
NU-DHL-1 = assay: Antiproliferative activity against human NU-DHL-1 cells assessed as inhibition of cell viability incubated for 3 to 5 days by Celltiter-Glo luminescent assay; format: functional, cell-based
[12] = target: Mitogen-activated protein kinase 1 (Homo sapiens, UniProt P28482); assay: Inhibition of Erk2 (unknown origin)
NCI-H2444 = assay: Antiproliferative activity against human NCI-H2444 cells assessed as inhibition of cell viability incubated for 3 to 5 days by Celltiter-Glo luminescent assay; format: functional, cell-based
Kasumi 1 = assay: cells; conditions: Homo sapiens

Chain of Serine/threonine-protein kinase B-raf (P15056 whole entry): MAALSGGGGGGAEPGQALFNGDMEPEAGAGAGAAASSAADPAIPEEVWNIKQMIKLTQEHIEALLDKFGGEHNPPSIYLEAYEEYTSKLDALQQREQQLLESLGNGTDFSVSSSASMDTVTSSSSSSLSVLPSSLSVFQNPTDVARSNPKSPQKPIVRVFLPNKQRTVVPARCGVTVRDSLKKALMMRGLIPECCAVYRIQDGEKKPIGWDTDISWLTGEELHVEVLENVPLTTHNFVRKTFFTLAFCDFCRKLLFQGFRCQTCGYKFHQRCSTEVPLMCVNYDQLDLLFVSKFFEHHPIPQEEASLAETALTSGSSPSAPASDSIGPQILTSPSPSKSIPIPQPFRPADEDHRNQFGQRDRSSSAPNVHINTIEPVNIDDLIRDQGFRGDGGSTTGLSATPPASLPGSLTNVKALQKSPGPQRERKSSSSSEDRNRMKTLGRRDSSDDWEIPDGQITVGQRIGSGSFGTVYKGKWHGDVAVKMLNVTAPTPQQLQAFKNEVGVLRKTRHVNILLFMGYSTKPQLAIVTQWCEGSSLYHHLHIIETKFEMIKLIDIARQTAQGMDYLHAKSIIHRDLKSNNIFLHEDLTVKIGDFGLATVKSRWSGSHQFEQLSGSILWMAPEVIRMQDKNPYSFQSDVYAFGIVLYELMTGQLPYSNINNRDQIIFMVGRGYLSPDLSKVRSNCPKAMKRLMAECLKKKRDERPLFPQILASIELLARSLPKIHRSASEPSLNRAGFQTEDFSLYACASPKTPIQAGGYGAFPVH
Chain of Epidermal growth factor receptor (P00533 whole entry): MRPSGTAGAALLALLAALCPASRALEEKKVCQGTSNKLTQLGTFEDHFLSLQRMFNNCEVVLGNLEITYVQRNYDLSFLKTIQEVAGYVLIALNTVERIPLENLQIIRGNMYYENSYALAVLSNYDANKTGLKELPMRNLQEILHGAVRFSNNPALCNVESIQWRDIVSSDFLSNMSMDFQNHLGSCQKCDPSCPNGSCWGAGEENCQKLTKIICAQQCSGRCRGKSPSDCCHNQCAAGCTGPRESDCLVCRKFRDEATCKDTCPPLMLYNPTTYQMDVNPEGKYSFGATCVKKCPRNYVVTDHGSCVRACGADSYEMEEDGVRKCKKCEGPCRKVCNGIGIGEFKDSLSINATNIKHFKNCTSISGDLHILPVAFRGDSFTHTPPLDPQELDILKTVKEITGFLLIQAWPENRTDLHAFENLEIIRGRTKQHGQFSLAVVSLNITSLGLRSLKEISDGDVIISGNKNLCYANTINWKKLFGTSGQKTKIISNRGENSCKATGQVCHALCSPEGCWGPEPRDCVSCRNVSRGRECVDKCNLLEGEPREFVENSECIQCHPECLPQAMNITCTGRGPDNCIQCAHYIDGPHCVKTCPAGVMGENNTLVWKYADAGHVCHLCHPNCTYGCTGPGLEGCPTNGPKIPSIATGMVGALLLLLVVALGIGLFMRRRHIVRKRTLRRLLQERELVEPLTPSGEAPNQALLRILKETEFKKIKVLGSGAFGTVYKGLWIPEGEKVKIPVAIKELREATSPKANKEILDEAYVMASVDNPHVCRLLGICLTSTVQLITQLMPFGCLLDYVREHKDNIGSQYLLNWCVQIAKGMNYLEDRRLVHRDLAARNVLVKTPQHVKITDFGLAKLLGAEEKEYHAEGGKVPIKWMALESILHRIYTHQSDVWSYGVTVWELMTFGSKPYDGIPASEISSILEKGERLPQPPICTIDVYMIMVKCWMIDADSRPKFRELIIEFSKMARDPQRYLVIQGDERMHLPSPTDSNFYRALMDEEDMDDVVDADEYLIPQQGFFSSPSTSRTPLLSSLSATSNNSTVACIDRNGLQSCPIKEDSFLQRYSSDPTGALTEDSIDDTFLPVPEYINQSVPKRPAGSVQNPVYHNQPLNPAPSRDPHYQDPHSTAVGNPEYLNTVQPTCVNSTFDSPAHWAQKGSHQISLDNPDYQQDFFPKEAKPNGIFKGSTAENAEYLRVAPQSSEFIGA
Chain of Serine/threonine-protein kinase pim-2 (Q9P1W9 whole entry): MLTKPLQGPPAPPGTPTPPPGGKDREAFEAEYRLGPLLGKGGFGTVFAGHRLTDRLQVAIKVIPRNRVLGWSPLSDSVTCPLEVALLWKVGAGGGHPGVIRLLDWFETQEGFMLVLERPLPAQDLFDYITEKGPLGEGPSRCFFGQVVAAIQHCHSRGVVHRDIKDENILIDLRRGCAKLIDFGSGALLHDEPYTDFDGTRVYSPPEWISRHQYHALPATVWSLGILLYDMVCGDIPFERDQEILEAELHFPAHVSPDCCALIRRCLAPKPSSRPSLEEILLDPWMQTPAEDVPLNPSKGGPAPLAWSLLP
Chain of Leukocyte tyrosine kinase receptor (P29376 whole entry, canonical isoform): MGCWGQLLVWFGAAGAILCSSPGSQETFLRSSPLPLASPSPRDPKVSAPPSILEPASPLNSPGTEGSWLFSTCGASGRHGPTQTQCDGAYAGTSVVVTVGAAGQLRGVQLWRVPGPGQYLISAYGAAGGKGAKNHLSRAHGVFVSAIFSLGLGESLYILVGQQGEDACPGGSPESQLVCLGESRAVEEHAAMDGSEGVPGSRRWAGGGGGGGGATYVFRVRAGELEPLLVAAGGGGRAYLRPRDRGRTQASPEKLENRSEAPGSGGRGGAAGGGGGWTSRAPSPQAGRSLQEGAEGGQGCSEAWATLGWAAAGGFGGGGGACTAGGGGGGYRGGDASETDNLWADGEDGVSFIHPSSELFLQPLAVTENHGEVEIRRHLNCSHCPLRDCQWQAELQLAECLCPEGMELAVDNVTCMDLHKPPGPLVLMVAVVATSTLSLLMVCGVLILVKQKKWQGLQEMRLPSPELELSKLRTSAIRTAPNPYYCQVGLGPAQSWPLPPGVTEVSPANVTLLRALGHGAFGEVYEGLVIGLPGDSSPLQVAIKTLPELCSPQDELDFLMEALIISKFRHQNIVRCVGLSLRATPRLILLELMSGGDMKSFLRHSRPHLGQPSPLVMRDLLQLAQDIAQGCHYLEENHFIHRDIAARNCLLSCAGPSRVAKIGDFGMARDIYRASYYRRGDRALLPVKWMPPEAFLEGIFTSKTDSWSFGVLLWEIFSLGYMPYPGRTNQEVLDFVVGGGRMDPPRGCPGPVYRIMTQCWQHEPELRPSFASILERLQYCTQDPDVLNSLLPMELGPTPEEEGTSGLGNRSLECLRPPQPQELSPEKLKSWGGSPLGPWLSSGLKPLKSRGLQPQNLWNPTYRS
Chain of High affinity nerve growth factor receptor (P04629 whole entry): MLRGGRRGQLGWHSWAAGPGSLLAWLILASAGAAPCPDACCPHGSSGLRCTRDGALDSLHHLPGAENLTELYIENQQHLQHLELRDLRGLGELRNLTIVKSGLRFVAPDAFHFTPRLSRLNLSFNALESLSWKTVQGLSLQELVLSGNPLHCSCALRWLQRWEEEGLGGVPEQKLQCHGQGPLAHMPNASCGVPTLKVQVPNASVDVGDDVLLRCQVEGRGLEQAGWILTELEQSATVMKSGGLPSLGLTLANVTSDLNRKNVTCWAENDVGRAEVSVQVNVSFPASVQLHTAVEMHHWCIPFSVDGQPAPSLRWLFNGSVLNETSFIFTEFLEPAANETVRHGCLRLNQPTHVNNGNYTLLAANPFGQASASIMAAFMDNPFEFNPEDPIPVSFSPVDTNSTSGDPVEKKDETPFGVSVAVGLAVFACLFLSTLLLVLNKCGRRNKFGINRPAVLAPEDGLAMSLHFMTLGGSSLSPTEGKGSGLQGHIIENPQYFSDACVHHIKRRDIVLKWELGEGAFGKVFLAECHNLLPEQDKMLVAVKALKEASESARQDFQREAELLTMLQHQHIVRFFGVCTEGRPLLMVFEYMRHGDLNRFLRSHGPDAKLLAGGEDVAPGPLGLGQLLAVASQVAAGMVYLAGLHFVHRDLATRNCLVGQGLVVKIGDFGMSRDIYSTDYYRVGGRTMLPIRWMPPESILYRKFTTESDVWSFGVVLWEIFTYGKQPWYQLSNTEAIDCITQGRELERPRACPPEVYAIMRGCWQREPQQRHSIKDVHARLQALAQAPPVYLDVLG
Chain of cGMP-dependent protein kinase 1 (Q13976 whole entry): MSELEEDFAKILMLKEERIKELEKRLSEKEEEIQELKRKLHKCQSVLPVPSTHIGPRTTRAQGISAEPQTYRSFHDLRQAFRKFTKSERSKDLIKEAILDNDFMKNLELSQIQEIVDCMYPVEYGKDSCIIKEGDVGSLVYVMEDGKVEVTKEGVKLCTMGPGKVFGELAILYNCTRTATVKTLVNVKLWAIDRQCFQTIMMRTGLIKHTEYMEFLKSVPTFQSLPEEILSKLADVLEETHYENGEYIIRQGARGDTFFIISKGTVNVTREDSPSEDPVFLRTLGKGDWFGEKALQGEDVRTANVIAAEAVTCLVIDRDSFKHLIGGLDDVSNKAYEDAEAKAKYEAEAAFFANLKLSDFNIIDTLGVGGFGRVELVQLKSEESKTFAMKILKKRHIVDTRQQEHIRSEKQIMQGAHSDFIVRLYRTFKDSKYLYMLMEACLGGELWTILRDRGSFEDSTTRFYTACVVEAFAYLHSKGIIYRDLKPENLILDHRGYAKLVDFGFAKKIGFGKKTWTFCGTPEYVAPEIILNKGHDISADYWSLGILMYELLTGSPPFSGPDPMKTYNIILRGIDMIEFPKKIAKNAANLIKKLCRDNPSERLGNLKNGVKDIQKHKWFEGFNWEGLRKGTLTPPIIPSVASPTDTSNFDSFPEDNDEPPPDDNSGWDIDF
Chain of Casein kinase I isoform alpha (P48729 whole entry, canonical isoform): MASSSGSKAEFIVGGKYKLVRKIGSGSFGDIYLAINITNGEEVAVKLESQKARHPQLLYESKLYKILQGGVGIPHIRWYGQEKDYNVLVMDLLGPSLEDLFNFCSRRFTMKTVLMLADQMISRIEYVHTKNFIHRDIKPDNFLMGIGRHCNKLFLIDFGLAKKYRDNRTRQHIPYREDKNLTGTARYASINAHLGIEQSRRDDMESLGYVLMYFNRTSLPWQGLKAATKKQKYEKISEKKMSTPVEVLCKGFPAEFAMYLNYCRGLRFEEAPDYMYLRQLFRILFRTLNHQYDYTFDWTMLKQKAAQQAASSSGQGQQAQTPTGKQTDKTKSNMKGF

Which EC50 (THP-1) does the source give for `CNC(=O)Nc1ccc2c(c1)CC[C@@]21OC(=O)N(CC(=O)N(Cc2ccc(F)cc2)[C@@H](C)C(F)(F)F)C1=O` [A-485] here?
The EC50 was 3.51 µM.

What about the EC50 (HCC4006) of the same molecule?
Its EC50 is 4.64 µM.

What about the IC50 [1] of the same molecule?
The IC50 was greater than 10 µM.

What about the EC50 (Toledo) of the same molecule?
The EC50 was 490 nM.

And the IC50 [2]?
Its IC50 is greater than 10 µM.

And the EC50 (Pfeiffer)?
The EC50 was 860 nM.

And the EC50 (NCI-H441)?
Its EC50 is greater than 10 µM.

What about the IC50 [3] of the same molecule?
The IC50 was greater than 10 µM.

What about the IC50 [4] of the same molecule?
Its IC50 is greater than 10 µM.

And the EC50 (Farage)?
Its EC50 is greater than 10 µM.

What about the EC50 (NCI-H838) of the same molecule?
Its EC50 is 6.99 µM.

What about the EC50 (WSU-NHL) of the same molecule?
Its EC50 is 1060 nM.

What about the EC50 (KMS-11) of the same molecule?
Its EC50 is 240 nM.

And the half-life [5]?
The half-life was 114 min.

And the IC50 [6]?
The IC50 was greater than 10 µM.

And the IC50 [7]?
The IC50 was greater than 10 µM.

And the IC50 [8]?
Its IC50 is greater than 10 µM.

What about the IC50 [9] of the same molecule?
The IC50 was greater than 10 µM.

And the EC50 (NCI-H510A)?
The EC50 was greater than 10 µM.

And the EC50 (DB)?
Its EC50 is 770 nM.

And the EC50 (SKM-1)?
Its EC50 is 1340 nM.

And the EC50 (U-937)?
The EC50 was greater than 10 µM.

And the Tmax [10]?
Its Tmax is 3 h.

What about the EC50 (SU-DHL-2) of the same molecule?
Its EC50 is 950 nM.

What about the Kp at 24 h (in vivo) of the same molecule?
The Kp at 24 h was 0.03.

What about the IC50 [11] of the same molecule?
Its IC50 is greater than 10 µM.

What about the EC50 (NU-DHL-1) of the same molecule?
Its EC50 is 530 nM.

What about the IC50 [12] of the same molecule?
The IC50 was greater than 10 µM.

And the EC50 (NCI-H2444)?
The EC50 was 5.92 µM.

And the EC50 (Kasumi 1)?
The EC50 was 290 nM.

Source: ChEMBL document CHEMBL5649168, “Discovery of a selective catalytic p300/CBP inhibitor that targets lineage-specific tumours” (Nature, 2017)
